Laboratory results published in patent publication US12492193B2, “Pyrazole derivatives for the treatment of cystic fibrosis” (Fondazione Istituto Italiano Di Tecnologia, priority 2017, dated 2025).

Target: T1, mutant CFTR (Homo sapiens, UniProt P13569, DEL508-508)
T1 construct: expressed in transfected cells
Test: Fluorescence (HS-YFP) assay for CFTR activity, corrector assay
Format: cell-based
Details: CFBE41o- and FRT cells with stable expression of mutant CFTR, 24 h compound treatment
Protocol: Fluorescence Assay for CFTR Activity
Mutant CFTR activity was determined with the functional assay based on the halide-sensitive yellow fluorescent protein, HS-YFP (Galietta et al., FEBS Lett 499: 220-224, 2001). CFBE41o- and FRT cells with stable expression of mutant CFTR and HS-YFP were plated on clear-bottom 96-well black microplates (Code 3603, Corning Life Sciences) at a density of 50,000 cells/well and kept at 37° C. in 5% CO2 for 24 hours. For the corrector assay, cells were treated for further 24 hours with test compounds, vehicle (DMSO), or the positive control VX-809. After treatment, the culture medium was removed and cells in each well were stimulated for 30 min at 37° C. with 60 μL PBS (containing 137 mM NaCl, 2.7 mM KCl, 8.1 mM Na2HPO4, 1.5 mM KH2PO4, 1 mM CaCl2, and 0.5 mM MgCl2) plus forskolin (20 μM) and genistein (50 μM).
For determination of potentiator activity on G551D-CFTR or G1349D-CFTR, cells were directly stimulated with forskolin plus test compound without previous incubation at low temperature. At the time of assay, microplates carrying CFBE41o- or FRT cells were transferred to microplate readers (BMG Labtech) equipped with high-quality excitation (HQ500/20X: 500±10 nm) and emission (HQ535/30M: 535±15 nm) filters for YFP (Chroma Technology). The assay consisted of a continuous 14 s fluorescence reading with 2 s before and 12 s after injection of an iodide-containing solution (165 μL of a modified PBS containing I^− instead of Cl^−; final I^− concentration in the well: 100 mM). Data were normalized to the initial background-subtracted fluorescence. Enhanced CFTR activity, induced by correctors and/or potentiators, results in accelerated I^− influx that in turn causes faster HS-YFP quenching (Pedemonte et al., Mol Pharmacol 68:1736-1746, 2005; Pedemonte et al., J Clin Invest 115:2564-2571, […]). To determine fluorescence quenching rate associated with I^− influx, the […] 10 s of data for each well were fitted with an exponential function to extrapolate initial slope (dF/dt).
EC50 obtained are illustrated in table 1 wherein +: EC50>2 μM; ++: 1.0 μM<EC50<2 μM; +++: EC50<1 μM.

T1 sequence (P13569 with tags, fused parts or gaps DEL508-508): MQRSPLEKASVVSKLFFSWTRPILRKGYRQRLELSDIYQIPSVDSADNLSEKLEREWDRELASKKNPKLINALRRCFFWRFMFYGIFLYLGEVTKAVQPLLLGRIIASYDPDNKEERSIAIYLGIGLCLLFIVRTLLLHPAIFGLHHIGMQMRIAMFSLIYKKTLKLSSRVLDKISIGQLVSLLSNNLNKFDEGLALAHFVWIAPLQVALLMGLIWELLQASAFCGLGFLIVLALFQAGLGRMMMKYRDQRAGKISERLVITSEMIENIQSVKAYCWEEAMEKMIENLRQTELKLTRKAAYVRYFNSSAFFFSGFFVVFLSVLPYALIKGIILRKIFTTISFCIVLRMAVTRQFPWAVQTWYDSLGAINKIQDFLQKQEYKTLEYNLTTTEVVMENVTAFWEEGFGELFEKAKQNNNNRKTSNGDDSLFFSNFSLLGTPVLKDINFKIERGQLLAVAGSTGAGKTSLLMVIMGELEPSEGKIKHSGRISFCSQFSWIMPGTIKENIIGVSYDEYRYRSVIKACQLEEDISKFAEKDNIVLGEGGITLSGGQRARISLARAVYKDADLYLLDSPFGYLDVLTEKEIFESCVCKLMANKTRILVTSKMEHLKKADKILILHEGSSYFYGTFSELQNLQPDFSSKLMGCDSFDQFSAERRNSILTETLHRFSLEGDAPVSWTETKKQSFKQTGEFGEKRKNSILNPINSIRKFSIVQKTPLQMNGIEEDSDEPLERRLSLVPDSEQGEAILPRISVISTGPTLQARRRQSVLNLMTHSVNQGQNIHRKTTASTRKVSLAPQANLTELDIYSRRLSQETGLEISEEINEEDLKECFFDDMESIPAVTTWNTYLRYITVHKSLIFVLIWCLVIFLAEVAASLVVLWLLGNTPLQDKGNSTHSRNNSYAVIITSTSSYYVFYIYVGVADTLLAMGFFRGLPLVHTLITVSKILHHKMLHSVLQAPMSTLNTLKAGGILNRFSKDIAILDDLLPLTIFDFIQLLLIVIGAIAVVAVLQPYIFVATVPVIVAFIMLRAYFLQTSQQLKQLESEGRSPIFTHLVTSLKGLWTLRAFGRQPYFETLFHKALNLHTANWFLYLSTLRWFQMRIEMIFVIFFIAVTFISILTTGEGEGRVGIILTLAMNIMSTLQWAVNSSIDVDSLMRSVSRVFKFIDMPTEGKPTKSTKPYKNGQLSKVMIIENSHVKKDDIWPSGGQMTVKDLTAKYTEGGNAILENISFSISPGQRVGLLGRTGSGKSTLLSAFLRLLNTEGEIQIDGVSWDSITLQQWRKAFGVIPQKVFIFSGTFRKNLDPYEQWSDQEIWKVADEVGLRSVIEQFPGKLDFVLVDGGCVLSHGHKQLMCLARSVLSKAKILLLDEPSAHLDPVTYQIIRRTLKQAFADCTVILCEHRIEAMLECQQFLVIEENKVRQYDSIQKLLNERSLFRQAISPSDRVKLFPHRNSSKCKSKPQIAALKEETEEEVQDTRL

| EC50 | SMILES |
| --- | --- |
| < 1000 nM | Cc1c(Cl)c(C(F)(F)F)nn1-c1cccc(C(=O)N(C)c2cc3c(cc2Cl)OCO3)c1 [compound 106, N-(6-Chloro-1,3-benzodioxol-5-yl)-3-[4-chloro-5-methyl-3-(trifluoromethyl)pyrazol-1-yl]-N-methyl-benzamide] |
| < 1000 nM | COc1cccc(N(C)C(=O)c2cccc(-n3nc(C)c(Cl)c3C)c2)c1 [compound 068, 3-(4-Chloro-3,5-dimethyl-pyrazol-1-yl)-N-(3-methoxyphenyl)-N-methyl-benzamide] |
| > 2000 nM | CN(C(=O)c1cccc(-n2cccn2)c1)c1ccc2c(c1)OCCO2 [compound 010, N-(2,3-Dihydro-1,4-benzodioxin-6-yl)-N-methyl-3-pyrazol-1-yl-benzamide] |
| > 2000 nM | CN(C(=O)c1cccc(-n2nc(C(F)(F)F)cc2OCC2(C(=O)O)CC2)c1)c1ccc2c(c1)OC(F)(F)O2 [compound 265, 1-[[2-[3-[(2,2-Difluoro-1,3-benzodioxol-5-yl)-methyl-carbamoyl]phenyl]-5-(trifluoromethyl)pyrazol-3-yl]oxymethyl]cyclopropanecarboxylic acid] |
| > 2000 nM | Cc1nn(-c2cccc(C(=O)Nc3ccc4c(c3)OC(F)(F)O4)c2)c(C)c1Cl [Int-006, 3-(4-Chloro-3,5-dimethyl-pyrazol-1-yl)-N-(2,2-difluoro-1,3-benzodioxol-5-yl)benzamide] |
| < 1000 nM | CN(C(=O)c1cccc(-n2nc(C(F)(F)F)c(Cl)c2COc2ccc(C(=O)O)cc2)c1)c1cnc2c(c1)OCO2 [compound 267, 4-[[4-Chloro-2-[3-[[1,3]dioxolo[4,5-b]pyridin-6-yl (methyl)carbamoyl]phenyl]-5-(trifluoromethyl)pyrazol-3-yl]methoxy]benzoic acid] |
| > 2000 nM | CC(C)(C)OC(=O)c1ccc(OCc2c(Cl)c(C(F)(F)F)nn2-c2cccc(C(=O)Nc3ccc4c(c3)OC(F)(F)O4)c2)cc1 [Int-172, Tert-butyl 4-[[4-chloro-2-[3-[(2,2-difluoro-1,3-benzodioxol-5-yl)carbamoyl]phenyl]-5-(trifluoromethyl)pyrazol-3-yl]methoxy]benzoate] |
| < 1000 nM | Cc1c(F)c(C(F)(F)F)nn1-c1cccc(C(=O)N(C)c2ccc3c(c2)OCO3)c1 [compound 126, N-(1,3-Benzodioxol-5-yl)-3-[4-fluoro-5-methyl-3-(trifluoromethyl)pyrazol-1-yl]-N-methyl-benzamide] |
| > 2000 nM | Cc1nn(-c2cccc(C(=O)Nc3ccc4c(c3)CCCC4)c2)c(C)c1Cl [Int-040] |
| > 2000 nM | CCOC(=O)c1nn(-c2cccc(C(=O)N(C)c3ccc4c(c3)OCO4)c2)c(C)c1Cl [compound 067, Ethyl 1-[3-[1,3-benzodioxol-5-yl(methyl)carbamoyl]phenyl]-4-chloro-5-methyl-pyrazole-3-carboxylate] |
| < 1000 nM | Cc1c(C#N)c(C(F)(F)F)nn1-c1cccc(C(=O)N(C)c2ccc3c(c2)OCO3)c1 [compound 187, N-(1,3-Benzodioxol-5-yl)-3-[4-cyano-5-methyl-3-(trifluoromethyl)pyrazol-1-yl]-N-methyl-benzamide] |
| < 1000 nM | Cc1nc2cc(F)c(NC(=O)c3cccc(-n4nc(C(F)(F)F)c(Cl)c4C)c3)cc2o1 [Int-153, 3-[4-Chloro-5-methyl-3-(trifluoromethyl)pyrazol-1-yl]-N-(5-fluoro-2-methyl-1,3-benzoxazol-6-yl)benzamide] |
| < 1000 nM | Cc1nc2cc(F)c(N(C)C(=O)c3cccc(-n4nc(C(F)(F)F)c(Cl)c4OCc4ccc(C(=O)OC(C)(C)C)cc4)c3)cc2o1 [compound 202, Tert-butyl 4-[[4-chloro-2-[3-[(5-fluoro-2-methyl-1,3-benzoxazol-6-yl)-methyl-carbamoyl]phenyl]-5-(trifluoromethyl)pyrazol-3-yl]oxymethyl]benzoate] |
| < 1000 nM | CN(C(=O)c1cccc(-n2nc(C(F)(F)F)cc2OCc2ccc(C(=O)O)cc2)c1)c1ccc2c(c1)OC(F)(F)O2 [compound 197, 4-[[2-[3-[(2,2-difluoro-1,3-benzodioxol-5-yl)-methyl-carbamoyl]phenyl]-5-(trifluoromethyl)pyrazol-3-yl]oxymethyl]benzoic acid] |
| > 2000 nM | Cc1nn(-c2cccc(C(=O)N(C)c3ccc4c(c3)OCCN4)c2)c(C)c1Cl [compound 036, 3-(4-Chloro-3,5-dimethyl-pyrazol-1-yl)-N-(3,4-dihydro-2H-1,4-benzoxazin-4-ium-7-yl)-N-methyl-benzamide 2,2,2-trifluoroacetate] |
| > 2000 nM | Cc1nn(-c2cccc(C(=O)N(C)c3ccc4c(c3)OCO4)n2)c(C)c1Cl [compound 050, N-(1,3-Benzodioxol-5-yl)-6-(4-chloro-3,5-dimethyl-pyrazol-1-yl)-N-methyl-pyridine-2-carboxamide] |
| 1000 to 2000 nM | CN(C(=O)c1cccc(-n2nc(-c3ccccn3)cc2C(F)(F)F)c1)c1ccc2c(c1)OCO2 [compound 192, N-(1,3-benzodioxol-5-yl)-N-methyl-3-[3-(2-pyridyl)-5-(trifluoromethyl)pyrazol-1-yl]benzamide] |
| > 2000 nM | CNC(=O)c1c(Cl)c(C)nn1-c1cccc(C(=O)N(C)c2ccc3c(c2)OCO3)c1 [compound 085, 2-[3-[1,3-benzodioxol-5-yl(methyl)carbamoyl]phenyl]-4-chloro-N,5-dimethyl-pyrazole-3-carboxamide] |
| 1000 to 2000 nM | CCc1cc(CC)n(-c2cccc(C(=O)N(C)c3ccc4c(c3)OCO4)c2)n1 [compound 093, N-(1,3-Benzodioxol-5-yl)-3-(3,5-diethylpyrazol-1-yl)-N-methyl-benzamide] |
| 1000 to 2000 nM | Cc1nn(-c2cccc(C(=O)N(C)c3ccc4c(c3)OCO4)c2)c(CO)c1Cl [compound 105, N-(1,3-benzodioxol-5-yl)-3-[4-chloro-5-(hydroxylmethyl)-3-methyl-pyrazol-1-yl]-N-methyl-benzamide] |
| < 1000 nM | CN(C(=O)c1cccc(-n2nc(C(F)F)c(C#N)c2COc2ccc(C(=O)O)cc2)c1)c1ccc2c(c1)OC(F)(F)O2 [compound 268, 4-[[4-cyano-2-[3-[(2,2-difluoro-1,3-benzodioxol-5-yl)-methyl-carbamoyl]phenyl]-5-(difluoromethyl)pyrazol-3-yl]methoxy]benzoic acid] |
| < 1000 nM | Cc1nn(-c2cccc(C(=O)N(C)c3ccc4c(c3)OCO4)c2)c(C(F)(F)F)c1Cl [compound 102, N-(1,3-Benzodioxol-5-yl)-3-[4-chloro-3-methyl-5-(trifluoromethyl)pyrazol-1-yl]-N-methyl-benzamide] |
| < 1000 nM | CN(C(=O)c1cccc(-n2nc(C(F)(F)F)cc2COc2ccc(C(=O)O)cc2)c1)c1ccc2c(c1)OC(F)(F)O2 [compound 218, 4-[[2-[3-[(2,2-difluoro-1,3-benzodioxol-5-yl)-methyl-carbamoyl]phenyl]-5-(trifluoromethyl)pyrazol-3-yl]methoxy]benzoic acid] |
| > 2000 nM | Cc1c(Cl)c(C(F)(F)F)nn1-c1cccc(C(=O)N(C)c2ccc3c(c2C(=O)O)OCO3)c1 [compound 208, 5-[[3-[4-chloro-5-methyl-3-(trifluoromethyl)pyrazol-1-yl]benzoyl]-methyl-amino]-1,3-benzodioxole-4-carboxylic acid] |
| > 2000 nM | Cc1nc2ccc(N(C)C(=O)c3cccc(-n4nc(C)c(Cl)c4C)c3)cn2n1 [compound 079, 3-(4-Chloro-3,5-dimethyl-pyrazol-1-yl)-N-methyl-N-(2-methyl-[1,2,4]triazolo[1,5-a]pyridin-6-yl)benzamide] |
| < 1000 nM | CN(C(=O)c1cccc(-n2nc(C(F)(F)F)cc2-c2cccnc2)c1)c1ccc2c(c1)OCO2 [compound 193, N-(1,3-Benzodioxol-5-yl)-N-methyl-3-[5-(3-pyridyl)-3-(trifluoromethyl)pyrazol-1-yl]benzamide] |
| 1000 to 2000 nM | Cc1nn(-c2cccc(C(=O)N(C)c3ccc4c(c3)OCO4)c2)c(C(C)(C)O)c1Cl [compound 115, N-(1,3-Benzodioxol-5-yl)-3-[4-chloro-5-(1-hydroxy-1-methyl-ethyl)-3-methyl-pyrazol-1-yl]-N-methyl-benzamide] |
| > 2000 nM | Cc1nn(-c2cccc(C(=O)Nc3ccc4c(c3)CCO4)c2)c(C)c1Cl [Int-052] |
| < 1000 nM | CN(C(=O)c1cccc(-n2nc(C(F)(F)F)c(Cl)c2COc2ccc(C(=O)O)cc2)c1)c1ccc2c(c1)OCO2 [compound 151, 4-[[2-[3-[1,3-benzodioxol-5-yl(methyl)carbamoyl]phenyl]-4-chloro-5-(trifluoromethyl)pyrazol-3-yl]methoxy]benzoic acid] |
